For this assay, the system named is breast cancer cell line MX-1. Nature of the assay: MX-1 cell line proliferation assay (3-day, Cell Titer Glo). In kind it is cell-based. The settings on record: Homo sapiens, MX1, MX-1 cells, 72 hours, read-out: Cellular proliferation: EC50. The method, then:
The impact of compounds of the Examples on cancer cell proliferation was determined using the breast cancer cell line MX-1 (ATCC) in a 3-day proliferation assay. MX-1 cells were maintained in RPMI supplemented with 10% FBS at 37° C. and an atmosphere of 5% CO2. For compound testing, MX-1 cells were plated in 96-well black bottom plates at a density of 5000 cells/well in 90 μL of culture media and incubated at 37° overnight to allow cell adhesion and spreading. Compound dilution series were prepared in DMSO via a 3-fold serial dilution from 3 mM to […]. The DMSO dilution series were then diluted 1:100 in phosphate buffered saline, and 10 μL of the resulted solution were added to the appropriate wells of the MX-1 cell plate. The final compound concentrations in the wells were 3, 1, 0.3, 0.1, 0.03, 0.01, 0.003, 0.001, 0.0003, 0.0001, and 0.00003 μM.
Luminescence readings from the Cell Titer Glo assay were normalized to the DMSO treated cells and analyzed using the GraphPad Prism software with sigmoidal curve fitting to obtain EC50s. The minimum significant ratio (MSR) was determined to evaluate assay reproducibility (Eastwood et al., (2006) J Biomol Screen, 11: 253-261). The overall MSR was determined to be 2.1 and a moving MSR (last six run MSR overtime) has been <2. The EC50 values are reported in Table 1 for the indicated compounds.
For orientation: Cellular ATP, detected with luciferase, serves as a proxy for viable cell number.
On to `CCOc1cc(=O)n(C)cc1-c1cc(N(Cc2cnccn2)S(=O)(=O)CC)ccc1Oc1ccc(F)cc1F` [Example 95, N-[4-(2,4-difluorophenoxy)-3-(4-ethoxy-1-methyl-6-oxo-1,6-dihydropyridin-3-yl)phenyl]-N-(pyrazin-2-ylmethyl)ethanesulfonamide], for which the EC50 was greater than 1000 nM.

For `CCOc1cc(=O)n(C)cc1-c1cc(N(Cc2cnccn2)S(=O)(=O)Cc2ccccc2)ccc1Oc1ccc(F)cc1F` [Example 96, N-[4-(2,4-difluorophenoxy)-3-(4-ethoxy-1-methyl-6-oxo-1,6-dihydropyridin-3-yl)phenyl]-1-phenyl-N-(pyrazin-2-ylmethyl)methanesulfonamide], the EC50 was greater than 1000 nM.

For `CCOc1cc(=O)n(C)cc1-c1cc(N(Cc2cnn(C)c2)S(=O)(=O)CC)ccc1Oc1ccc(F)cc1F` [Example 97, N-[4-(2,4-difluorophenoxy)-3-(4-ethoxy-1-methyl-6-oxo-1,6-dihydropyridin-3-yl)phenyl]-N-[(1-methyl-1H-pyrazol-4-yl)methyl]ethanesulfonamide], the EC50 amounted to 550 nM.

As to `CCOc1cc(=O)n(C)cc1-c1cc(N(Cc2cnn(C)c2)S(=O)(=O)Cc2ccccc2)ccc1Oc1ccc(F)cc1F` [Example 98, N-[4-(2,4-difluorophenoxy)-3-(4-ethoxy-1-methyl-6-oxo-1,6-dihydropyridin-3-yl)phenyl]-N-[(1-methyl-1H-pyrazol-4-yl)methyl]-1-phenylmethanesulfonamide], the EC50 was greater than 1000 nM.

Turning to `CCOc1cc(=O)n(C)cc1-c1cc(N(Cc2nccs2)S(=O)(=O)CC)ccc1Oc1ccc(F)cc1F` [Example 99, N-[4-(2,4-difluorophenoxy)-3-(4-ethoxy-1-methyl-6-oxo-1,6-dihydropyridin-3-yl)phenyl]-N-(1,3-thiazol-2-ylmethyl)ethanesulfonamide], the EC50 stood at 555 nM.

In the case of `CCOc1cc(=O)n(C)cc1-c1cc(N(Cc2cn(C)cn2)S(=O)(=O)CC)ccc1Oc1ccc(F)cc1F` [Example 100, N-[4-(2,4-difluorophenoxy)-3-(4-ethoxy-1-methyl-6-oxo-1,6-dihydropyridin-3-yl)phenyl]-N-[(1-methyl-1H-imidazol-4-yl)methyl]ethanesulfonamide], the EC50 was greater than 1000 nM.

For `CCOc1cc(=O)n(C)cc1-c1cc(N(Cc2cn(C)cn2)S(=O)(=O)Cc2ccccc2)ccc1Oc1ccc(F)cc1F` [Example 101, N-[4-(2,4-difluorophenoxy)-3-(4-ethoxy-1-methyl-6-oxo-1,6-dihydropyridin-3-yl)phenyl]-N-[(1-methyl-1H-imidazol-4-yl)methyl]-1-phenylmethanesulfonamide], the EC50 is greater than 1000 nM.

For `CCOc1cc(=O)n(C)cc1-c1cc(N(C[C@H]2COCCO2)S(=O)(=O)CC)ccc1Oc1ccc(F)cc1F` [Example 102, N-[4-(2,4-difluorophenoxy)-3-(4-ethoxy-1-methyl-6-oxo-1,6-dihydropyridin-3-yl)phenyl]-N-[(2S)-1,4-dioxan-2-ylmethyl]ethanesulfonamide], the EC50 came to 710 nM.

Consider `CCOc1cc(=O)n(C)cc1-c1cc(N(CC2CCOCC2)S(=O)(=O)CC)ccc1Oc1ccc(F)cc1F` [Example 103, N-[4-(2,4-difluorophenoxy)-3-(4-ethoxy-1-methyl-6-oxo-1,6-dihydropyridin-3-yl)phenyl]-N-(tetrahydro-2H-pyran-4-ylmethyl)ethanesulfonamide], for which the EC50 turned out to be 677 nM.

The record behind these values is patent publication US9428514B2, “Bromodomain inhibitors” (AbbVie Inc., priority 2013, dated 2016).
